Test results from the NIST ThermoML archive (doi:10.1021/je700245a).

Assay: xn = mol fraction of the nth substance listed
Conditions: 101 kPa, Liquid; for speed of sound: Sing-around technique in a fixed-path interferometer

CN(CCO)CCO [N-methyldiethanolamine] + CCO
Conditions | mass density [kg/m3] | speed of sound [m/s]
288.15 K, x1 = 0.0049 | 797.34 | 1183.1
288.15 K, x1 = 0.0253 | 810.93 | 1201.7
288.15 K, x1 = 0.0524 | 826.23 | 1222.5
288.15 K, x1 = 0.102 | 855.32 | 1260.9
288.15 K, x1 = 0.1629 | 883.86 | 1301
288.15 K, x1 = 0.2474 | 916.48 | 1353
288.15 K, x1 = 0.3713 | 952.15 | 1415
288.15 K, x1 = 0.4806 | 977.2 | 1460
288.15 K, x1 = 0.5506 | 991.1 | 1486
288.15 K, x1 = 0.7035 | 1013.7 | 1536
288.15 K, x1 = 0.7916 | 1024.1 | 1557
288.15 K, x1 = 0.8688 | 1032.69 | 1573.2
288.15 K, x1 = 0.9415 | 1038.68 | 1588.4
288.15 K, x1 = 1 | 1044.32 | 1598.8
293.15 K, x1 = 0.0049 | 793.08 | 1166
293.15 K, x1 = 0.0253 | 806.7 | 1184.9
293.15 K, x1 = 0.0524 | 822.03 | 1205.9
293.15 K, x1 = 0.102 | 850.46 | 1244.5
293.15 K, x1 = 0.1629 | 879 | 1286
293.15 K, x1 = 0.2474 | 911.75 | 1338
293.15 K, x1 = 0.3713 | 947.5 | 1399.7
293.15 K, x1 = 0.4806 | 973.1 | 1444
293.15 K, x1 = 0.5506 | 986.7 | 1470
293.15 K, x1 = 0.7035 | 1009.24 | 1520
293.15 K, x1 = 0.7916 | 1019.88 | 1542
293.15 K, x1 = 0.8688 | 1028.4 | 1557.7
293.15 K, x1 = 0.9415 | 1034.96 | 1572.9
293.15 K, x1 = 1 | 1040.6 | 1583.1
298.15 K, x1 = 0.0049 | 788.79 | 1149.2
298.15 K, x1 = 0.0253 | 802.07 | 1168
298.15 K, x1 = 0.0524 | 817.31 | 1189.3
298.15 K, x1 = 0.102 | 845.79 | 1228.1
298.15 K, x1 = 0.1629 | 874.36 | 1272.9
298.15 K, x1 = 0.2474 | 907.18 | 1325
298.15 K, x1 = 0.3713 | 942.7 | 1384.6
298.15 K, x1 = 0.4806 | 968.28 | 1429.2
298.15 K, x1 = 0.5506 | 982.08 | 1457
298.15 K, x1 = 0.7035 | 1005.04 | 1500
298.15 K, x1 = 0.7916 | 1015.3 | 1522
298.15 K, x1 = 0.8688 | 1024.2 | 1538
298.15 K, x1 = 0.9415 | 1031.19 | 1553
298.15 K, x1 = 1 | 1036.83 | 1564
303.15 K, x1 = 0.0049 | 784.48 | 1132.3
303.15 K, x1 = 0.0253 | 797.45 | 1151.2
303.15 K, x1 = 0.0524 | 812.97 | 1172.7
303.15 K, x1 = 0.102 | 841.06 | 1211.8
303.15 K, x1 = 0.1629 | 869.83 | 1257.3
303.15 K, x1 = 0.2474 | 902.4 | 1310
303.15 K, x1 = 0.3713 | 938.24 | 1369.4
303.15 K, x1 = 0.4806 | 963.57 | 1414
303.15 K, x1 = 0.5506 | 977.52 | 1439
303.15 K, x1 = 0.7035 | 1000.62 | 1484.3
303.15 K, x1 = 0.7916 | 1011.24 | 1505.6
303.15 K, x1 = 0.8688 | 1019.64 | 1520.8
303.15 K, x1 = 0.9415 | 1027.42 | 1535
303.15 K, x1 = 1 | 1033.06 | 1546
308.15 K, x1 = 0.0049 | 779.2 | 1114.8
308.15 K, x1 = 0.0253 | 792.51 | 1134.5
308.15 K, x1 = 0.0524 | 807.85 | 1156.3
308.15 K, x1 = 0.102 | 835.99 | 1195.6
308.15 K, x1 = 0.1629 | 864.64 | 1241.5
308.15 K, x1 = 0.2474 | 897.2 | 1293
308.15 K, x1 = 0.3713 | 933.17 | 1354.1
308.15 K, x1 = 0.4806 | 958.75 | 1398.8
308.15 K, x1 = 0.5506 | 972.75 | 1423.8
308.15 K, x1 = 0.7035 | 996.08 | 1468.9
308.15 K, x1 = 0.7916 | 1006.79 | 1490.3
308.15 K, x1 = 0.8688 | 1015.81 | 1506.2
308.15 K, x1 = 0.9415 | 1023.63 | 1520.4
308.15 K, x1 = 1 | 1029.26 | 1531
313.15 K, x1 = 0.0049 | 775.41 | 1098.8
313.15 K, x1 = 0.0253 | 788.32 | 1117.9
313.15 K, x1 = 0.0524 | 803.95 | 1139.8
313.15 K, x1 = 0.102 | 831.61 | 1179.5
313.15 K, x1 = 0.1629 | 860.34 | 1225.8
313.15 K, x1 = 0.2474 | 892.65 | 1278
313.15 K, x1 = 0.3713 | 928.65 | 1339
313.15 K, x1 = 0.4806 | 954 | 1383.7
313.15 K, x1 = 0.5506 | 967.98 | 1408.7
313.15 K, x1 = 0.7035 | 991.6 | 1453.6
313.15 K, x1 = 0.7916 | 1002.49 | 1475.1
313.15 K, x1 = 0.8688 | 1011.97 | 1491.5
313.15 K, x1 = 0.9415 | 1019.82 | 1506.1
313.15 K, x1 = 1 | 1025.45 | 1516
